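Five compound concentrations were applied to cells in 96-well plates for 48 hours; endpoints were derived by simple linear interpolation of the resulting dose-response curve. GI50 marks 50% less growth. TGI marks complete inhibition of growth.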
Tests used:
Assay in all cases: NCI tumour cell line growth inhibition, 48 h
UACC-257 melanoma = system: UACC-257 melanoma
HT29 colon = system: HT29 colon
HOP-92 NSCLC = system: HOP-92 NSCLC
DU-145 prostate = system: DU-145 prostate
MDA-MB-231 breast = system: MDA-MB-231 breast
ACHN renal = system: ACHN renal
T-47D breast = system: T-47D breast
SNB-19 CNS = system: SNB-19 CNS
SF-268 CNS = system: SF-268 CNS
U251 CNS = system: U251 CNS

Row | SMILES | GI50 (UACC-257 melanoma) [µM] | TGI (UACC-257 melanoma) [µM] | GI50 (HT29 colon) [µM] | TGI (HT29 colon) [µM] | GI50 (HOP-92 NSCLC) [µM] | TGI (HOP-92 NSCLC) [µM] | GI50 (DU-145 prostate) [µM] | TGI (DU-145 prostate) [µM] | GI50 (MDA-MB-231 breast) [µM] | TGI (MDA-MB-231 breast) [µM] | GI50 (ACHN renal) [µM] | TGI (ACHN renal) [µM] | GI50 (T-47D breast) [µM] | TGI (T-47D breast) [µM] | TGI (SNB-19 CNS) [µM] | TGI (SF-268 CNS) [µM] | TGI (U251 CNS) [µM] | GI50 (SNB-19 CNS) [µM] | GI50 (SF-268 CNS) [µM] | GI50 (U251 CNS) [µM]
1 | CCCCCCCCCCCCCCCC[N+](C)(CCO)Cc1cnc[nH]1 (stereo not drawn) | 4.08 | 72.7 | 0.382 | 12.3 | 0.922 | 3.82 | 1.23 | 4.2 | 1.48 | 5.5 | 3.13 | 19.4 | 2.8 | 28.1 |  |  |  |  |  | 
2 | O=S(=O)(SCc1ccccc1)C(c1ccccc1)c1ccccc1 |  | > 100 |  | 71.4 |  | 35.5 |  |  |  |  |  | > 100 |  |  | > 100 | > 100 | > 100 |  |  | 
3 | COc1ccc(C[C@@H]2NC[C@@H](O)[C@@H]2OC(C)=O)cc1 | 2.33 |  |  |  |  | 0.0448 |  | 0.0947 |  | 0.261 | 9.5 |  |  | 0.193 |  |  | 0.453 | 3.73 | 4.37 | 
4 | Cc1ccc(NC(=O)C(=O)CC(=O)C2CCOC2=O)c(C)c1 (stereo not drawn) |  | > 100 |  | > 100 |  | > 100 |  |  |  |  |  | > 100 |  |  | > 100 | > 100 | > 100 |  |  | 
5 | CC1=C(C(=O)NCc2ccccc2)C(c2ccc([N+](=O)[O-])cc2)C(C(=O)NCc2ccccc2)=C(C)N1 |  | > 100 |  | 33.9 |  | 73.6 |  |  |  |  |  | 89.7 |  |  | > 100 | > 100 | > 100 |  |  | 
6 | CN(C)CCSc1cccc(-c2cc(-c3cccc(SCCN(C)C)c3)nc(SCCN(C)C)n2)c1 |  | 3.02 |  | 3.4 |  | 6.87 |  |  |  |  |  | 19.4 |  |  |  |  | 3.54 |  |  | 
7 | COc1ccc(NC(=O)CC/C(CC(=O)C(C)(C)C)=N\NC(=O)C(N)=O)cc1 |  | > 100 |  | > 100 |  | > 100 |  |  |  |  |  | > 100 |  |  | > 100 | > 100 | > 100 |  |  | 
8 | COc1cc2c(cc1OC)C(OC)N(C)c1c-2ccc2cc3c(cc12)OCO3 (stereo not drawn) |  | 50.2 |  | 7.07 |  | 5.76 |  | > 75 |  | 5.16 |  | > 75 |  |  | > 75 | > 20.9 | 1.75 |  |  | 
9 | CC(=O)O[C@H]1CCC2[C@@H]3CCC4=C(O)C(=O)C(C#N)C[C@]4(C)C3CC[C@@]21C (stereo partly drawn) |  | > 100 |  | > 100 |  | 8.33 |  |  |  |  |  | > 100 |  |  | > 100 | > 100 | > 100 |  |  | 
10 | O=C(c1ccccc1)c1oc2ccc(Br)cc2c1-c1cnn(-c2ccccc2)c1 |  | > 100 |  | > 100 |  | > 100 |  |  |  |  |  | > 100 |  |  | > 100 | > 100 |  |  |  | 
11 | COc1ccc(C(=O)C(c2ccc(OC)cc2)C2OC(=O)C(Cl)=C2Cl)cc1 (stereo not drawn) |  | > 100 |  | > 100 |  | > 100 |  |  |  |  |  | > 100 |  |  | > 100 | > 100 | > 100 |  |  | 
12 | CN(C)c1ncc(-c2ccc(C(F)(F)F)cc2)c(NC2CCCCCC2)n1 | 16.8 | 54 | 11.4 | 32.9 |  |  | 27.1 | > 100 | 13.3 | 28.8 | 16 | 31.2 | 25 | > 100 | 37.5 | 96.1 | 30 | 15.6 | 22.7 | 14.7
13 | CC#C/C(=N\OC[C@H]1COCCN1)c1ccc2ncnc(Nc3ccc(OCc4cccc(F)c4)c(Cl)c3)c2c1 | 1.85 | 3.45 | 1.62 | 3.09 | 1.14 | 2.48 | 1.1 | 2.36 | 1.72 | 3.14 |  |  | 0.0582 | 4.47 | 2.69 |  | 3.22 | 1.3 |  | 1.71
14 | O=C(Cc1nc2ccccc2s1)C(=O)Nc1cccc(Cl)c1 |  | > 100 |  | > 100 |  | > 100 |  |  |  |  |  | > 100 |  |  | > 100 | > 100 | > 100 |  |  | 
15 | CC(C)C1CC2C(=O)N(c3ccccc3)C(=O)C2c2[nH]c3ccccc3c21 (stereo not drawn) |  | > 100 |  | > 100 |  |  |  |  |  |  |  | 38.3 |  |  |  |  | 41.1 |  |  | 
16 | Cc1ccccc1C(=O)Oc1ccc(O)cc1 |  | > 100 |  | > 100 |  |  |  |  |  |  |  | > 100 |  |  | > 100 | > 100 | > 100 |  |  | 
17 | O=C(O)/C(Cl)=C(\Cl)C(=O)NC1C2CC3CC(C2)CC1C3 (stereo not drawn) |  | > 100 |  | > 100 |  | > 100 |  |  |  |  |  | > 100 |  |  | > 100 | > 100 | > 100 |  |  | 
18 | Nc1ccccc1NC(=O)c1ccc(CCCC(=O)Nc2ccc(C3CC3N)cc2)cc1 (stereo not drawn) |  |  | 0.995 | > 100 | 0.359 | 4.21 | 2.66 | 18.5 | 2.77 | 48 | 4.3 | 33.5 | 0.562 | > 100 | > 100 | 23 | 4.06 | 3.81 | 1.83 | 1.34
19 | COc1cc(O)c2c(c1)C(=O)C=C(Cl)C2=O |  | > 100 |  | > 100 |  | > 100 |  |  |  |  |  | > 100 |  |  | > 100 | > 100 | > 100 |  |  | 
20 | COc1ccc(N/N=C(\CCN(C)C)c2ccccc2)cc1 |  | 16.4 |  | 23.6 |  |  |  |  |  |  |  | 4.84 |  |  | 14.5 | > 100 | 4.55 |  |  | 
21 | CC(=O)OC1CC2Oc3ccc(C)cc3C(C)(O2)C1=O (stereo not drawn) |  | > 100 |  | > 100 |  |  |  |  |  |  |  | > 100 |  |  | > 100 |  | > 100 |  |  | 
22 | O=C(Nc1cccc(Cc2cccc(NC(=O)c3ccccc3)c2)c1)c1ccccc1 |  | > 100 |  | > 100 |  | 44.3 |  |  |  |  |  | > 100 |  |  | 94.6 | > 100 | > 100 |  |  | 
23 | CN(CC#N)C1CCCC[C@H]1O (stereo partly drawn) |  | > 100 |  | > 100 |  | > 100 |  |  |  |  |  | > 100 |  |  | > 100 | > 100 | > 100 |  |  | 
24 | O=C(CC1(O)C(=O)Nc2ccccc21)c1ccco1 (stereo not drawn) |  | > 100 |  | > 100 |  | > 100 |  |  |  |  |  | > 100 |  |  | > 100 | > 100 |  |  |  | 
25 | Cc1ccc(C2NC(=O)c3ccccc3N2)s1 (stereo not drawn) |  |  |  |  |  |  |  |  |  |  |  | > 100 |  |  | > 100 | > 100 | > 100 |  |  | 

— PubChem BioAssay (NCI)
